Measurements as given in US9193731B2, “Antimicrobial compounds and methods of making and using the same” (Melinta Therapeutics, Inc., priority 2009, dated 2015).

System: Escherichia coli strain ATCC25922
Experiment: standard microdilution assay to determine minimum inhibitory concentrations (MICs)
Format: cell-based
Conditions: Escherichia coli strain ATCC25922, microdilution
Procedure, shortened: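 Broth microdilution MIC against E. coli ATCC25922, following CLSI protocols, typically in a 100 microliter final volume. Results reported as +/− relative to a 16 micrograms/ml cutoff.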

Compound | E. coli ATCC25922 MIC
N=C(N)NCCCNCc1ccc(-n2cc3cc(-c4cc(C(=O)NC5CCNCC5)cc(N5CCNCC5)c4)[nH]c3nc2=O)cc1 [Compound 1023] | + (a “+” indicates that the compound has an MIC value of 16 micrograms/ml or less)
N=C(N)NCCCNCc1ccc(-n2cc3cc(CCS(=O)(=O)N(Cc4ccc(Cl)c(Cl)c4)C4CCNCC4)[nH]c3nc2=O)cc1 [Compound 913] | + (a “+” indicates that the compound has an MIC value of 16 micrograms/ml or less)
Cc1cc(-n2cc3cc(-c4ccc(S(=O)(=O)NC5CCCNC5)cc4)[nH]c3nc2=O)ccc1CNCCCNC(=N)N (stereo not shown) [Compound 1309] | + (a “+” indicates that the compound has an MIC value of 16 micrograms/ml or less)
N=C(N)NC(=O)CCNCc1ccc(-n2cc3cc(-c4ccc(S(=O)(=O)NC5CCNCC5)cc4)[nH]c3nc2=O)cc1 [Compound 1173] | − (a “−” indicates that the compound has an MIC value greater than 16 micrograms/ml)
N=C(N)NCCCNCc1ccc(-n2cc3cc(-c4cc(Br)cc(CCCCN)c4)[nH]c3nc2=O)cc1 [Compound 2079a] | + (a “+” indicates that the compound has an MIC value of 16 micrograms/ml or less)
N=C(N)NCCCNCc1ccc(-n2cc3cc(-c4ccc(S(=O)(=O)N(Cc5ccccc5SC(F)(F)F)C5CCNCC5)cc4)[nH]c3nc2=O)cc1 [Compound 756] | + (a “+” indicates that the compound has an MIC value of 16 micrograms/ml or less)
NCCCNCc1ccc(-n2cc3cc(-c4ccc(C(NC5CCNCC5)C(F)(F)F)cc4)[nH]c3nc2=O)cc1 (stereo not shown) [Compound 918] | + (a “+” indicates that the compound has an MIC value of 16 micrograms/ml or less)
NCCCNCc1ccc(-n2cc3cc(-c4cc(C(=O)N5CCN(CCO)CC5)cc(N5CCNCC5)c4)[nH]c3nc2=O)cc1 [Compound 860] | − (a “−” indicates that the compound has an MIC value greater than 16 micrograms/ml)
CN(C)Cc1ccc(-n2cc3cc(-c4ccc(S(=O)(=O)N(Cc5ccc(Cl)c(Cl)c5)C5CCNCC5)cc4)[nH]c3nc2=O)cc1 [Compound 983] | − (a “−” indicates that the compound has an MIC value greater than 16 micrograms/ml)
CC(CN)CN1CCC(c2cc3cn(-c4ccc(CNCCCNC(=N)N)cc4)c(=O)nc3[nH]2)C1 (mixture of isomers) [Compound 2008a] | + (a “+” indicates that the compound has an MIC value of 16 micrograms/ml or less)
N=C(N)NCCCN1CC=C(n2cc3cc(-c4ccc(S(=O)(=O)N(Cc5ccc(Cl)c(Cl)c5)C5CCNCC5)cc4)[nH]c3nc2=O)CC1 [Compound 966] | + (a “+” indicates that the compound has an MIC value of 16 micrograms/ml or less)
N=C(N)NCCCCOc1ccc(-c2cn3cc(-c4ccc(C(=O)NC5CCN(C(=N)N)CC5)cc4)[nH]c3nc2=O)cc1 [Compound 848] | + (a “+” indicates that the compound has an MIC value of 16 micrograms/ml or less)
CNCc1ccc(-n2cc3cc(-c4ccc(S(=O)(=O)N(Cc5ccc6nonc6c5)C5CCNCC5)cc4)[nH]c3nc2=O)cc1 [Compound 962] | − (a “−” indicates that the compound has an MIC value greater than 16 micrograms/ml)
N=C(N)NCCCNCc1ccc(-n2cc3cc(C4CCCN(CC(O)CN)C4)[nH]c3nc2=O)cc1 (stereo not shown) [Compound 1422] | + (a “+” indicates that the compound has an MIC value of 16 micrograms/ml or less)
N=C(N)NCCCNCc1ccc(-n2cc3cc(-c4cc(CNc5ccc(F)cc5)cc(N5CCNCC5)c4)[nH]c3nc2=O)cc1 [Compound 1060] | + (a “+” indicates that the compound has an MIC value of 16 micrograms/ml or less)
N=C(N)NCCCNCc1ccc(-n2cc3cc(-c4ccc(S(=O)(=O)N(Cc5ccc(Cl)c(Cl)c5)C5CCOCC5)cc4)[nH]c3nc2=O)cc1 [Compound 898] | − (a “−” indicates that the compound has an MIC value greater than 16 micrograms/ml)
N=C(N)N[C@@H]1CCN(Cc2ccc(-n3cc4cc(-c5ccc(S(=O)(=O)N(CCCN6CCCCC6)C6CCNCC6)cc5)[nH]c4nc3=O)cc2)C1 [Compound 1201] | + (a “+” indicates that the compound has an MIC value of 16 micrograms/ml or less)
CN(Cc1ccccc1)C(=O)c1cc(-c2cc3cn(-c4ccc(CNCCCNC(=N)N)cc4)c(=O)nc3[nH]2)cc(N2CCNCC2)c1 [Compound 989] | + (a “+” indicates that the compound has an MIC value of 16 micrograms/ml or less)
N=C(N)NCCCNCc1ccc(-n2cc3cc(-c4ccc(OC(F)(F)F)c(CCCCN)c4)[nH]c3nc2=O)cc1 [Compound 2072a] | + (a “+” indicates that the compound has an MIC value of 16 micrograms/ml or less)
N=C(N)NCCCNCc1ccc(-n2cc3cc(-c4ccc(S(=O)(=O)N(CCCC5CCCCN5)C5CCNCC5)cc4)[nH]c3nc2=O)cc1 (stereo not shown) [Compound 1019] | + (a “+” indicates that the compound has an MIC value of 16 micrograms/ml or less)
NCc1ccc(-n2cc3cc(-c4ccc(S(=O)(=O)N(Cc5ccc6nonc6c5)C5CCNCC5)cc4)[nH]c3nc2=O)cc1 [Compound 961] | − (a “−” indicates that the compound has an MIC value greater than 16 micrograms/ml)
N=C(N)NCCCNCc1ccc(-n2cc3cc(-c4ccc(S(=O)(=O)N(CCCC(N)=O)C5CCNCC5)cc4)[nH]c3nc2=O)cc1 [Compound 843] | + (a “+” indicates that the compound has an MIC value of 16 micrograms/ml or less)
N=C(N)NCCCNCc1ccc(-n2cc3cc(-c4cc(CNc5cc(F)cc(F)c5)cc(N5CCNCC5)c4)[nH]c3nc2=O)cc1 [Compound 1043] | + (a “+” indicates that the compound has an MIC value of 16 micrograms/ml or less)
N=C(N)NCCCNCc1ccc(-n2cc3cc(-c4cccc(S(=O)(=O)CCCN)c4)[nH]c3nc2=O)cc1 [Compound 1460] | + (a “+” indicates that the compound has an MIC value of 16 micrograms/ml or less)
COCCOCCN(C1CCNCC1)S(=O)(=O)c1cccc(-c2cc3cn(-c4ccc(CNCCCNC(=N)N)cc4)c(=O)nc3[nH]2)c1 [Compound 1161] | + (a “+” indicates that the compound has an MIC value of 16 micrograms/ml or less)
N=C(N)NCCCNCc1ccc(-n2cc3cc(-c4ccc(S(=O)(=O)CCCNC5CCCOC5)cc4)[nH]c3nc2=O)cc1 (stereo not shown) [Compound 1275] | + (a “+” indicates that the compound has an MIC value of 16 micrograms/ml or less)
N=C(N)NCCCN1CC=C(n2cc3cc(-c4ccc(S(=O)(=O)N(Cc5ccc6nonc6c5)C5CCNCC5)cc4)[nH]c3nc2=O)CC1 [Compound 1004] | + (a “+” indicates that the compound has an MIC value of 16 micrograms/ml or less)

Same assay, conditions: Escherichia coli, ATCC25922, Escherichia coli strain ATCC25922, microdilution; read-out: E. coli ATCC25922 MIC

MIC [µg/mL] | Compound
> 16 | NCCCNCc1ccc(-n2cc3cc(-c4ccc([C@H]5OC(=O)N[C@@H]5CO)cc4)[nH]c3nc2=O)cc1 [Compound 939]
> 16 | NCCCN(CCCN)Cc1ccc(-n2cc3cc(-c4ccc(CO)cc4)[nH]c3nc2=O)cc1 [Compound 179]
> 16 | CN(Cc1ccccc1)Cc1cc2cn(-c3ccc(CNCCCNC(=N)N)cc3)c(=O)nc2[nH]1 [Compound 906]
> 16 | O=C1CC[C@@H](COc2cccc(-n3cc4cc(-c5ccc(S(=O)(=O)NC6CCNCC6)cc5)[nH]c4nc3=O)c2)N1 [Compound 1223]
< 16 | CN(C)C(=O)c1cc(-c2cc3cn(-c4ccc(CNCCCNC(=N)N)cc4)c(=O)nc3[nH]2)cc(N2CCNCC2)c1 [Compound 797]
> 16 | NCCCNCc1ccc(-n2cc3cc(-c4cc(F)c(F)cc4F)[nH]c3nc2=O)cc1 [Compound 310]
> 16 | COC(=O)C(N)Cc1cc2cn(-c3ccc(CN(CCCN)CCCN)cc3)c(=O)nc2[nH]1 (stereo not shown) [Compound 169]
> 16 | CS(=O)(=O)c1ccc(-c2cn3cc(-c4ccc(CNCCCN)cc4)c(=O)nc3[nH]2)cc1 [Compound 631]
> 16 | NCc1ccc(-n2cc3cc(-c4cccc(OCCCc5ccc(Cl)cc5)c4)[nH]c3nc2=O)cc1 [Compound 1128]
< 16 | NCCCNCc1ccc(-n2cc3cc(CCS(=O)(=O)NC4CCNCC4)[nH]c3nc2=O)cc1 [Compound 881]
> 16 | NCCCNCc1ccc(-n2cc3cc(-c4ccccc4OC(F)(F)F)[nH]c3nc2=O)cc1 [Compound 309]
> 16 | NCCCNCc1ccc(-c2cn3cc(-c4ccc(S(=O)(=O)N5CCOCC5)cc4)[nH]c3nc2=O)cc1 [Compound 746]
> 16 | NCCCN(CCCN)Cc1ccc(-n2cc3cc(-c4ccc(F)cc4)[nH]c3nc2=O)cc1 [Compound 180]
< 16 | CN(C)C1CCN(c2cccc(-c3cc4cn(-c5ccc(CNCCCN)cc5)c(=O)nc4[nH]3)c2)CC1 [Compound 665]
> 16 | NCCCNCc1ccc(-c2cn3cc(-c4ccc(C(=O)NC5CCOCC5)cc4)[nH]c3nc2=O)cc1 [Compound 799]
< 16 | NCCCNCc1ccc(-n2cc3cc(C4C[C@@H](N)[C@@H](CO)O4)[nH]c3nc2=O)cc1 (stereo partly shown) [Compound 1246]
> 16 | N=C(N)NCCCNCc1ccc(-c2cn3cc(-c4ccc(C(=O)N5CCN(c6ccc(F)cc6)CC5)cc4)[nH]c3nc2=O)cc1 [Compound 670]
> 16 | NCCCCN1CC=C(n2cc3cc(-c4ccc(F)cc4)[nH]c3nc2=O)CC1 [Compound 511]
< 16 | N=C(N)NCCCNCc1ccc(-n2cc3cc(C4CCCN(CCCF)C4)[nH]c3nc2=O)cc1 (stereo not shown) [Compound 2017a]
> 16 | O=c1nc2[nH]c(-c3ccc(S(=O)(=O)NC4CCNCC4)cc3)cc2cn1-c1cccc(OCc2c[nH]cn2)c1 [Compound 1188]
> 16 | NCc1ccc(-n2cc3cc(-c4ccccc4OCCO)[nH]c3nc2=O)cc1 [Compound 1088]
> 16 | NCCCNCc1ccc(-n2cc3cc(-c4ccccc4C(F)(F)F)[nH]c3nc2=O)cc1 [Compound 292]

Compound | MIC [µg/mL]
N=C(N)NCCCN1CC=C(c2cn3cc(-c4ccc(F)cc4)[nH]c3nc2=O)CC1 [Compound 566] | > 16
N=C(N)NCCCNCc1ccc(-c2cn3cc(-c4ccc(C(=O)NC5CN6CCC5CC6)cc4)[nH]c3nc2=O)cc1 (stereo not shown) [Compound 778] | < 16
NCCCN1CC=C(c2cn3cc[nH]c3nc2=O)CC1 [Compound 571] | > 16
